Laboratory results reported in PMC3489664, “Sigma-1 Receptor Agonists Directly Inhibit NaV1.2/1.4 Channels” (PLoS ONE, 2012).

Tests used:
Type in all cases: cell-based
NaV1.2 [1] = biological target: T1, NaV1.2 (Rattus norvegicus, UniProt P04775); test: whole-cell patch clamp in transfected HEK293T cells, […]; conditions: HEK-293T
T1 construct: gene Scn2a; rat brain type IIA Na+ channel clone

NaV1.2 [2] = biological target: T2, NaV1.2 (Rattus norvegicus, UniProt P04775, F1764A); test: as above; conditions: HEK-293T
T2 construct: gene Scn2a; rat brain type IIA Na+ channel clone

NaV1.2 [3] = biological target: T3, NaV1.2 (Rattus norvegicus, UniProt P04775, Y1771A); test: as above; conditions: HEK-293T
T3 construct: gene Scn2a; rat brain type IIA Na+ channel clone

NaV1.2 [4] = biological target: T1, NaV1.2; test: whole-cell patch clamp in transfected HEK293T cells
NaV1.4 [5] = biological target: T4, NaV1.4 (Rattus norvegicus, UniProt P15390, Y1586A); test: whole-cell patch clamp in transfected HEK293T cells, […]; conditions: HEK-293T
T4 construct: gene Scn4a; rat NaV1.4 (NM013178)

NaV1.4 [6] = biological target: T5, NaV1.4 (Rattus norvegicus, UniProt P15390); test: whole-cell patch clamp in transfected HEK293T and COS-7 cells, […]
T5 construct: gene Scn4a; rat NaV1.4 (NM013178) in pEGFP-N1

NaV1.4 [7] = biological target: T6, NaV1.4 (Rattus norvegicus, UniProt P15390, F1579A); test: whole-cell patch clamp in transfected HEK293T cells, […]; conditions: HEK-293T
T6 construct: gene Scn4a; rat NaV1.4 (NM013178)

NaV1.2 [8] = biological target: T1, NaV1.2; test: whole-cell patch clamp in transfected HEK293T and COS-7 cells, […]

T1 sequence (P04775 whole entry): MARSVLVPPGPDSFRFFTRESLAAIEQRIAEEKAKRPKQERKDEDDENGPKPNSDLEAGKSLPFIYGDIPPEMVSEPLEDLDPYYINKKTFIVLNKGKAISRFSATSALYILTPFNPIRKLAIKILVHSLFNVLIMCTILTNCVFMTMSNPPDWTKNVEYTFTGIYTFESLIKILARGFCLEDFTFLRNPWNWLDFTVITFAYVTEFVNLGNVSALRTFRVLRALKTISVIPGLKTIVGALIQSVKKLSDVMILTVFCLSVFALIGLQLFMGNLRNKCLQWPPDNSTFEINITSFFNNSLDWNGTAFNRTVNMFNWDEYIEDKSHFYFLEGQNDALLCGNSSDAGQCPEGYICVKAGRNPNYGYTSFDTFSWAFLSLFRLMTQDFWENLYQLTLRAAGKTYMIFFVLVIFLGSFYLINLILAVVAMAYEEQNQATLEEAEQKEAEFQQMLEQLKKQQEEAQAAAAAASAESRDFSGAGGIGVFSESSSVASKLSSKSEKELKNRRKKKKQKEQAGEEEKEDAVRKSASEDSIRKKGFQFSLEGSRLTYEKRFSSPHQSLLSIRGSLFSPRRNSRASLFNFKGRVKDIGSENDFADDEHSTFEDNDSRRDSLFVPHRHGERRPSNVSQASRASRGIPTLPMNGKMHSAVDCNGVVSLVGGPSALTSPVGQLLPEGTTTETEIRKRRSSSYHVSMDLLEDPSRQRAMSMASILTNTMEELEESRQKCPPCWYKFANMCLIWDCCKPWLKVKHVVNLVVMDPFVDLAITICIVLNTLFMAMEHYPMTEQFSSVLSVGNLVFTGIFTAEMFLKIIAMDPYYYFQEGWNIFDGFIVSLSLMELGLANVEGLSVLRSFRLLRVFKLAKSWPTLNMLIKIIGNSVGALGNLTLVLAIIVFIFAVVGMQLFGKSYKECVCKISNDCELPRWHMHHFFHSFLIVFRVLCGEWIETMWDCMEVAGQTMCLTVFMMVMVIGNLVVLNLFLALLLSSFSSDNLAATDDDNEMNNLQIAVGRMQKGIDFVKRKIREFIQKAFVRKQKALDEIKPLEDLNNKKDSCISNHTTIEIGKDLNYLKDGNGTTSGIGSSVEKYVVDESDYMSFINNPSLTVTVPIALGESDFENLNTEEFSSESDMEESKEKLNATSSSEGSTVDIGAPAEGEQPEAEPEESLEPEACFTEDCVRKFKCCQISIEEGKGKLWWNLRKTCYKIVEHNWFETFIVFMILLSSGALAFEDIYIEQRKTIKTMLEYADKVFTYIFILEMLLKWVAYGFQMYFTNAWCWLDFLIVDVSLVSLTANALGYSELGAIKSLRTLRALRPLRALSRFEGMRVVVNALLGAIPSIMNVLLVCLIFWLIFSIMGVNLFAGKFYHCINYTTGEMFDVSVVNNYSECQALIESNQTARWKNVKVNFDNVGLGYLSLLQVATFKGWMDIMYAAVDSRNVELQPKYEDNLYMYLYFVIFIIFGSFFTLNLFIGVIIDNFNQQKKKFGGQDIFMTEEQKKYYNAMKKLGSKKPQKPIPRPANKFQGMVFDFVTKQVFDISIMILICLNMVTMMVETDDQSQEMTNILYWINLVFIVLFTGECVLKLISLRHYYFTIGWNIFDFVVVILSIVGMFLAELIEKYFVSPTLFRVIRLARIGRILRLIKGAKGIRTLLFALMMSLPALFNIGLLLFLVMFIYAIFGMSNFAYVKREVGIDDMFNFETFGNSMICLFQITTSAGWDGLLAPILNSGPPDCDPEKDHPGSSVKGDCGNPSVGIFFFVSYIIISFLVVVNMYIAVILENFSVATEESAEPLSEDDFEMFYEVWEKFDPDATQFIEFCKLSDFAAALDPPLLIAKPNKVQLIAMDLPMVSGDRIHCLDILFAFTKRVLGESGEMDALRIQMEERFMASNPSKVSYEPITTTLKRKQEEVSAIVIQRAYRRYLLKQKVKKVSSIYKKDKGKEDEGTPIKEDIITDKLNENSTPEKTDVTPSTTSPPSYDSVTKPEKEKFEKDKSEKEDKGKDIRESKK
T2 sequence (P04775 whole entry F1764A): as the sequence (P04775 whole entry) above, with F1764A counted along it
T5 sequence (P15390 whole entry): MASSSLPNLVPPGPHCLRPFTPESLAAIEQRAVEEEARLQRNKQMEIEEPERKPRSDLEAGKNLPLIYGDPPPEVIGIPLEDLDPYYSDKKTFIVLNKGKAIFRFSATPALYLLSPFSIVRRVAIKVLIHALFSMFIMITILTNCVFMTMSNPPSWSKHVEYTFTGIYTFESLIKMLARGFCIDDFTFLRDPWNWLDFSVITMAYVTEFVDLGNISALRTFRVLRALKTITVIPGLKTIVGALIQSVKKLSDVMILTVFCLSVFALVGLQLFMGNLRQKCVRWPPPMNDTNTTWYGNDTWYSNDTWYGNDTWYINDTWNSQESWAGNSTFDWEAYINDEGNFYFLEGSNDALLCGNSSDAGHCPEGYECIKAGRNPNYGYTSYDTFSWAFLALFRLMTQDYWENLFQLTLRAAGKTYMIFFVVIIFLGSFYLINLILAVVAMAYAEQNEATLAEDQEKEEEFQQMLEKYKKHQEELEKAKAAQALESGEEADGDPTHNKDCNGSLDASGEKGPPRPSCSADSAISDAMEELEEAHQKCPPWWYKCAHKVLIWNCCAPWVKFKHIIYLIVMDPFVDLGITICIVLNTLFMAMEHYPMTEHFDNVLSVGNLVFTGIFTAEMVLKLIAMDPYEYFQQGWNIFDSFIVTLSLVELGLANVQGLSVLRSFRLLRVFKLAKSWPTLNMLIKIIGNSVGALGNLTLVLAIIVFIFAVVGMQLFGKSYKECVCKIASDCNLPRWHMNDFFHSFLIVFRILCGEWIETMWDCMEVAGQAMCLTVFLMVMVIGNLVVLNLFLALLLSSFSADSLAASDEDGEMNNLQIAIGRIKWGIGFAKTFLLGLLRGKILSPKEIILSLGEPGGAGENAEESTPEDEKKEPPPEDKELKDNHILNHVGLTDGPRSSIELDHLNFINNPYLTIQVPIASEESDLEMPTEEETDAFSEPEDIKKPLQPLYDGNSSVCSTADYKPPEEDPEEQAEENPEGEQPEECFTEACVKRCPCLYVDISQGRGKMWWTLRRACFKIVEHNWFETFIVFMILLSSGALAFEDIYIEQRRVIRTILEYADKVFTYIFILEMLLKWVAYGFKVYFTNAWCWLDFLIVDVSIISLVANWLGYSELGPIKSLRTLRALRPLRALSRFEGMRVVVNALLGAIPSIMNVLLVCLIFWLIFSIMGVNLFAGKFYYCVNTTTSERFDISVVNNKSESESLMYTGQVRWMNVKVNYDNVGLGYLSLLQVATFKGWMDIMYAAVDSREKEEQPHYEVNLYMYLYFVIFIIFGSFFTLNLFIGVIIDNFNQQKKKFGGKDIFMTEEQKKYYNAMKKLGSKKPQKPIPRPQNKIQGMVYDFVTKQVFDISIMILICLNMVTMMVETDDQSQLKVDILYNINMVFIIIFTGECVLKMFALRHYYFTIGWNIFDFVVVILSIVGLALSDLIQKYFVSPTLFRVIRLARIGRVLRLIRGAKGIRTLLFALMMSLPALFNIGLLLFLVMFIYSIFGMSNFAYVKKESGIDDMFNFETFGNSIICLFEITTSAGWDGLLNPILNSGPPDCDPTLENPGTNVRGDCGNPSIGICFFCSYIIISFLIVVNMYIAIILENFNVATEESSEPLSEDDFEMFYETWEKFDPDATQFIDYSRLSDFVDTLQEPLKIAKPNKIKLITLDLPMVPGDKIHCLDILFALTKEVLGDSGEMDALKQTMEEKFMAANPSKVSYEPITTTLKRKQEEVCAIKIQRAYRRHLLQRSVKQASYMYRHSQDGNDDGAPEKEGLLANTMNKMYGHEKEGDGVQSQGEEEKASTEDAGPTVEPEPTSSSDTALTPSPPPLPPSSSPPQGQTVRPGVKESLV
T3 sequence (P04775 whole entry Y1771A): as the sequence (P04775 whole entry) above, with Y1771A counted along it
T6 sequence (P15390 whole entry F1579A): as the sequence (P15390 whole entry) above, with F1579A counted along it
T4 sequence (P15390 whole entry Y1586A): as the sequence (P15390 whole entry) above, with Y1586A counted along it

Structure (SMILES): Cc1ccccc1NC(=N)Nc1ccccc1C [1,3-di-o-tolyl-guanidine]
- inhibition at 100 µM (NaV1.2 [1]): 69 ± 2.5%

Structure (SMILES): C=CCN1CC[C@]2(C)c3cc(O)ccc3C[C@H]1[C@H]2C [(+)-SKF 10047]
- inhibition at 100 µM (NaV1.2 [2]): 25.9 ± 1.6%
- inhibition at 100 µM (NaV1.2 [3]): 45.2 ± 1.3%
- IC50 (NaV1.2 [4]): 140 µM
- inhibition at 100 µM (NaV1.4 [5]): 49.3 ± 0.5%
- inhibition at 100 µM (NaV1.4 [6]): 51.5 ± 2.5%
- inhibition at 100 µM (NaV1.4 [7]): 23 ± 1.7%

Structure (SMILES): COc1ccc2c(c1)[C@]13CCCC[C@@H]1[C@H](C2)N(C)CC3 [Dextromethorphan]
- inhibition at 100 µM (NaV1.2 [8]): 65.8 ± 2%
